Assay results taken from patent publication US12410229B2, “PTH mimetic peptide based on protein domain reconstruction and application thereof” (priority 2018, dated 2025).

Legend:
[1] = system: Bone marrow cells from the bone marrow cavity of femur in 7-week-old mice; assay: Continuous PTH mimetic peptide stimulation, osteoclast formation (TRAP); format: cell-based, mouse
Description: Bone marrow cells from the bone marrow cavity of femur in 7-week-old mice were extracted and seeded in 24-well plates at a density of 1×10^5/well. The 48 h continuous PTH mimetic peptide stimulation experiment was carried out as described above. After 7 days, tartrate resistant acid phosphatase (TRAP) staining (bottom row of holes in FIG. 2A) and quantification were performed (FIG. 2D).
(§1) Primary osteoblasts (two rows of the holes in A) of mouse skulls were continuously treated with PTH (1-34), MY-3 and MY-1 (within the 48-hour culture cycles, PTH peptide stayed in the culture medium at all times). After 2 weeks, alkaline phosphatase (ALP) staining (A) and quantification (B) wells were performed in the cell culture. After 4 Weeks, calcium nodule staining (A) and calcium ion quantification (C) were performed in culture wells. Bone marrow cells in the femoral shaft bone marrow cavity (lower hole A) received the same treatment with three peptides as described above. Two weeks later, tartrate resistant acid phosphatase (TRAP) staining (A) and quantification (D) were performed. […] The same experiment was repeated three times and same results were obtained. […], #P<0.05 vs PTH (1-34).

[2] = system: Primary osteoblasts of mouse skulls; assay: Intermittent (4 h/48 h) PTH mimetic peptide stimulation, osteoblast differentiation (ALP, calcium nodules); format: cell-based
Description: Osteoblasts were isolated from the skulls of newborn mice and cultured in vitro. The cell at density of 1×10^5/well was inoculated in a 24-well culture plate. After 3 days, a 4 h/48 h intermittent PTH mimetic peptide stimulation experiment was started, which the PTH mimetic peptide was added to the culture system at the corresponding concentration (containing 10% serum+α-MEM Culture medium). After 4 hours, the culture solution was aspirated, the adherent cells were gently washed once with α-MEM medium, then 10% serum+α-MEM medium was added and continued culturing for 44 hours. Repeated this cycle. Concentration: MY-1 peptide 10^−6 M, PTH (1-34) peptide 10^−8 M, MY-3 peptide 10^−8 M.
Alkaline phosphatase staining was performed after 2 weeks, and calcium nodule staining was performed after 4 weeks (FIG. 1A, upper two rows of the holes). Alkaline phosphatase expression and calcium ion concentration of each well were quantitative detected (FIGS. 1B and 1C).
(§2) Primary osteoblasts (two rows of the holes in A) of mouse skulls were intermittently treated with PTH (1-34), MY-3 and MY-1. (within 48 hours, PTH peptide was added to the medium for 4 hours, removed, and cultured in the ordinary medium for 44 hours, then started all over again). At 2 weeks, alkaline phosphatase (ALP) staining (A) and quantification (B) wells were performed in the cell culture. 4 Weekly, calcium nodule staining (A) and calcium ion quantification (C) were performed in culture wells. Bone marrow cells in the femoral shaft bone marrow cavity (lower hole A) received the same treatment with three peptides mentioned above. Two weeks later, tartrate resistant acid phosphatase (TRAP) staining (A) and quantification (D) were performed. […] The same experiment was repeated three times, and same results were obtained. *P<0.05 vs control group (CON), #P<0.05 vs PTH (1-34).

[3] = system: Primary mouse skull osteoblasts; assay: Realtime PCR gene expression after PTH peptide stimulation, osteoblasts; format: cell-based; details: intermittent stimulation
Description: (§3) Primary mouse skull osteoblasts (FIGS. 3A and 3B) and mouse bone marrow cells (FIGS. 3C and 3D) were cultured in cell culture plates. When the cells completely cover the bottom of the culture well, changed to a medium containing 1% fetal bovine serum, added with different concentrations of PTH mimetic peptide (the concentration is the same as above). Cells receiving intermittent stimulation (FIG. 3A and FIG. 3C) were treated with PTH peptides for 4 hours, and normal medium for 44 hours. Such 48-hour cycle repeated three times.
(§4) Cell RNA was extracted 4 hours after the last PTH peptide stimulation for Realtime PCR detection. Cells receiving continuous stimulation (FIG. 3B and FIG. 3D) were cultured in the medium with PTH peptides, and the culture medium containing peptides was changed 48 hours later. Repeated such cycle three times. After 48 hours of the last PTH peptide stimulation, cellular RNA was extracted for Realtime PCR detection. As shown in the figure, the average value and standard deviation of an independent experiment (triple holes) were obtained. The same experiment was repeated three times and same results were obtained. *P<0.05 vs control group (CON), #P<0.05 vs PTH (1-34).

[4] = system: Bone marrow cells from the bone marrow cavity of 7-week-old mice; assay: Intermittent (4 h/48 h) PTH mimetic peptide stimulation, osteoclast formation (TRAP); format: cell-based, mouse
Description: Bone marrow cells from the bone marrow cavity of 7-week-old mice were extracted and cultured in 24-well plates at a density of 1×10^5/well. The 4 h/48 h intermittent PTH mimetic peptide stimulation experiment was carried out as described above. After 7 days, tartrate resistant acid phosphatase (TRAP) staining (bottom row of the holes in FIG. 1A) and quantification were performed (FIG. 1D).
as §2

[5] = system: Primary osteoblasts of mouse skulls; assay: Continuous PTH mimetic peptide stimulation, osteoblast differentiation (ALP, calcium nodules); format: cell-based
Description: Osteoblasts were isolated from the skulls of newborn mice and cultured in vitro. The cell at density of 1×10^5/well was inoculated in the 24-well culture plate. After 3 days, the continuous PTH mimetic peptide stimulation experiment was started. The PTH mimetic peptide was added to the culture system (containing 10% serum+α-MEM medium) at the corresponding concentration. After 48 hours, when the medium is changed, the PTH mimetic peptide was added again, meaning the PTH mimetic peptide is always in the culture solution. Concentration: MY-1 peptide 10^−6 M, PTH (1-34) peptide 10^−8 M, MY-3 peptide 10^−8 M. Alkaline phosphatase staining was performed 2 weeks later, and calcium nodule staining was performed 4 weeks later (FIG. 2A, upper two rows of the holes). The expression of alkaline phosphatase and the concentration of calcium ion in each well were quantitatively detected (FIGS. 2B and 2C).
as §1

[6] = system: C57BL female mice; assay: Ovariectomy osteoporosis model, tibia histology (paraffin section); format: in vivo, mouse; details: OVX mice, 2 and 4 weeks, compared with the control group; MY-1 400, PTH (1-34) and MY-3 40 μg/kg/day
Description: An osteoporosis model was constructed by removing the ovaries of 7-week-old C57BL female mice. Mice were subcutaneously injected with PTH (3-34) (400 μg/kg/day), MY-1 peptide (400 μg/kg/day), PTH (1-34) (40 μg/kg/day) and MY-3 peptide (40 μg/kg/day) daily (5 days a week), respectively. Mice were sacrificed at 2 and 4 weeks and their tibias were separated, then the cancellous bone mass (BV/TV) and bone mineral density (BMD) of the tibias were measured by micro-CT (FIG. 4).
MY-3 has a stronger anti-bone loss effect than PTH (1-34)-through histological studies. The preparation of the osteoporosis animal model and the administration method of the PTH mimetic peptide was the same as in Example 4. After 2 and 4 weeks, the tibias of experimental mice were removed, decalcified, and prepared for paraffin section. At last, the osteoclast was stained.

[7] = system: mouse bone marrow cells; assay: Realtime PCR gene expression after PTH peptide stimulation, bone marrow cells; format: cell-based; details: continuous stimulation of bone marrow cells (FIG. 3D)
Description: as §3, §4

[8] = clinical applications, in general; cited from earlier work

CC[C@H](C)[C@H](NC(=O)[C@H](CCC(=O)O)NC(=O)[C@H](CO)NC(=O)[C@@H](NC(=O)[C@@H](N)CO)C(C)C)C(=O)N[C@@H](CCC(N)=O)C(=O)N[C@@H](CC(C)C)C(=O)N[C@@H](CCSC)C(=O)N[C@@H](Cc1cnc[nH]1)C(=O)N[C@@H](CC(N)=O)C(=O)N[C@@H](CC(C)C)C(=O)NCC(=O)N[C@@H](CCCCN)C(=O)N[C@@H](Cc1cnc[nH]1)C(=O)N[C@@H](CC(C)C)C(=O)N[C@@H](CC(N)=O)C(=O)N[C@@H](CO)C(=O)N[C@@H](CCSC)C(=O)N[C@@H](CCC(=O)O)C(=O)N[C@@H](CCCN=C(N)N)C(=O)N[C@H](C(=O)N[C@@H](CCC(=O)O)C(=O)N[C@@H](Cc1c[nH]c2ccccc12)C(=O)N[C@@H](CC(C)C)C(=O)N[C@@H](CCCN=C(N)N)C(=O)N[C@@H](CCCCN)C(=O)N[C@@H](CCCCN)C(=O)N[C@@H](CC(C)C)C(=O)N[C@@H](CCC(N)=O)C(=O)N[C@@H](CC(=O)O)C(=O)N[C@H](C(=O)N[C@@H](Cc1cnc[nH]1)C(=O)N[C@@H](CC(N)=O)C(=O)N[C@@H](Cc1ccccc1)C(=O)O)C(C)C)C(C)C [PTH (1-34), Teriparatide, reference compound]
osteoclast formation (in words) ([1]; TRAP staining): the same effect on promoting osteoclast formation
TRAP ([1]; after 7 days, MY-1 10^−6 M, PTH (1-34) 10^−8 M, MY-3 10^−8 M, mean ± SD): 11.80 ± 1.99 U/g protein
ALP ([2]; intermittent 4 h/48 h stimulation, 2 weeks, MY-1 10^−6 M, PTH (1-34) 10^−8 M, MY-3 10^−8 M, mean ± SD): 4.91 ± 0.55 U/g protein
Calcium ([2]; intermittent 4 h/48 h stimulation, 4 weeks, MY-1 10^−6 M, PTH (1-34) 10^−8 M, MY-3 10^−8 M, mean ± SD): 0.49 ± .06 mmole/g protein
osteogenic differentiation of osteoblasts (in words) ([2]; intermittent stimulation): can promote osteogenic differentiation of osteoblasts
expression of osteogenic marker gene ALP and OC (in words) [3]: promote the expression of osteogenic marker gene ALP and OC
TRAP ([4]; intermittent 4 h/48 h stimulation, after 7 days, MY-1 10^−6 M, PTH (1-34) 10^−8 M, MY-3 10^−8 M, mean ± SD): 9.61 ± 1.78 U/g protein
osteoclast formation (in words) ([4]; intermittent stimulation, TRAP staining): the same effect of promoting osteoclast formation
osteogenic differentiation of osteoblasts (in words) [5]: inhibit the differentiation of osteoblasts
ALP ([5]; 2 weeks, MY-1 10^−6 M, PTH (1-34) 10^−8 M, MY-3 10^−8 M, mean ± SD): 1.02 ± 0.28 U/g protein
Calcium ([5]; 4 weeks, MY-1 10^−6 M, PTH (1-34) 10^−8 M, MY-3 10^−8 M, mean ± SD): 0.12 ± 0.03 mmole/g protein
number of trabecular bones (in words) [6]: increased
RANKL expression (in words) [7]: significantly promoted RANKL expression
expression of ALP and OC (in words) [7]: inhibited the expression of ALP and OC
reduction of the incidence of vertebral fractures [8]: about 76%
